The record followed here is ChEMBL document CHEMBL1127265, “Synthesis of a novel ring contracted artemisinin derivative” (1994).

This test is filed under the species Mus musculus. The test can be described thus: Blood schizonticidal activity in mice model with Plasmodium berghei k-173 infection was determined. In kind it is functional.
Take `C[C@@H]1CCC2[C@@H](C)[C@H](OC[C@@]3(C)OC4OC5(C)CCC6[C@H](C)CCC3[C@@]46OO5)OC3OC4(C)CCC1[C@]32OO4` (single isomer, unassigned): the ED90 came to 2.5 mg/kg. For `C[C@@H]1CCC2[C@]34OOC(C)(CCC13)O[C@H]4O[C@]2(C)C=O` (single isomer, unassigned) the value was 25 mg/kg; for `C[C@@H]1CCC2[C@@H](C)[C@@H](OC[C@]3(C)OC4OC5(C)CCC6[C@@H](C)CCC3[C@]46OO5)OC3OC4(C)CCC1[C@]32OO4` (single isomer, unassigned), 1.25 mg/kg. For `CC1OC2OC3(C)CCC4[C@H](C)CCC([C@H]1C)[C@@]24OO3.O` (single isomer, unassigned), the ED90 was determined as 10 mg/kg.

`C[C@@H]1CCC2[C@]34OOC(C)(CCC13)O[C@H]4O[C@]2(C)CO` (single isomer, unassigned) displayed an ED90 of 25 mg/kg. For the compound `CCO[C@H]1O[C@@H]2O[C@@]3(C)CC[C@H]4[C@H](C)CC[C@@H]([C@H]1C)[C@@]24OO3` [ARTEMOTIL], the ED90 is 1.25 mg/kg.
